Target: human orexin-2 receptor (Homo sapiens (Human), UniProt O43614)
Assay: Human orexin 2 receptor radioligand binding ([3H]-EMPA competition)
Conditions: HEK293 cells stably expressing human orexin-2 receptor; [3H]-EMPA 5 nM final; apparent Ki=IC50/(1+C/Kd), Kd=2 nM; read-out: OR 2 Ki

human orexin-2 receptor, sequence (O43614 whole entry): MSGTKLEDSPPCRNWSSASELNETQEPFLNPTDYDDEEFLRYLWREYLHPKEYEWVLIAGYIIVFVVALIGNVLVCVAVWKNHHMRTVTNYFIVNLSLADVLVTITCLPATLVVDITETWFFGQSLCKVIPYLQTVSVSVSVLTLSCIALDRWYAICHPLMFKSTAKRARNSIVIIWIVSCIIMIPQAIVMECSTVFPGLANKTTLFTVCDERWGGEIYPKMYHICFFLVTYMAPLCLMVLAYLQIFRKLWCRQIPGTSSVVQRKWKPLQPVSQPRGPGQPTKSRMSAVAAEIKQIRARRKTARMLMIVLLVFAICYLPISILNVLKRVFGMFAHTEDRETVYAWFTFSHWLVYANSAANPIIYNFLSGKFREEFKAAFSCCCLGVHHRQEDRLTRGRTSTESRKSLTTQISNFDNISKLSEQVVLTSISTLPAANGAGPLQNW

Row | Ki | Structure (SMILES)
1 | 52 nM | COc1cc(OC)nc(N2CC3CN(C(=O)c4ccccc4-c4ccccn4)CC3C2)n1 (centres unmarked) [Example 70, 2-(4,6-Dimethoxypyrimidin-2-yl)-5-[(2-pyridin-2-ylphenyl)carbonyl]octahydro-pyrrolo[3,4-c]pyrrole]
2 | 1000 nM | COc1cc(OC)nc(N2CC3CN(C(=O)c4cc(F)ccc4-c4ncccn4)CC3C2)n1 (centres unmarked) [Example 71, 2-(4,6-Dimethoxypyrimidin-2-yl)-5-[(5-fluoro-2-pyrimidin-2-ylphenyl)carbonyl]octahydropyrrolo[3,4-c]pyrrole]
3 | 318 nM | COc1cc(OC)nc(N2CC3CN(C(=O)c4cc(F)ccc4-n4nccn4)CC3C2)n1 (centres unmarked) [Example 72, 2-(4,6-Dimethoxypyrimidin-2-yl)-5-{[5-fluoro-2-(2H-1,2,3-triazol-2-yl)phenyl]carbonyl}octahydropyrrolo[3,4-c]pyrrole]
4 | 7 nM | Cc1cc(C)nc(N2CC3CN(C(=O)c4c(F)cccc4-c4ncccn4)CC3C2)n1 (centres unmarked) [Example 73, 2-(4,6-Dimethylpyrimidin-2-yl)-5-[(2-fluoro-6-pyrimidin-2-ylphenyl)carbonyl]octahydropyrrolo[3,4-c]pyrrole]
5 | 14 nM | Cc1cc(C)nc(N2CC3CN(C(=O)c4cc(F)ccc4-c4ncccn4)CC3C2)n1 (centres unmarked) [Example 74, 2-(4,6-Dimethylpyrimidin-2-yl)-5-[(5-fluoro-2-pyrimidin-2-ylphenyl)carbonyl]octahydropyrrolo[3,4-c]pyrrole]
6 | 237 nM | CCc1ccccc1C(=O)N1CC2CN(c3nc(C)cc(C)n3)CC2C1 (centres unmarked) [Example 76, 2-(4,6-Dimethylpyrimidin-2-yl)-5-[(2-ethylphenyl)carbonyl]octahydropyrrolo[3,4-c]pyrrole]
7 | 25 nM | CCOc1ccc2ccccc2c1C(=O)N1CC2CN(c3nc(C)cc(C)n3)CC2C1 (centres unmarked) [Example 77, 2-(4,6-Dimethylpyrimidin-2-yl)-5-[(2-ethoxynaphthalen-1-yl)carbonyl]octahydro-pyrrolo[3,4-c]pyrrole]
8 | 550 nM | COc1cc(OC)nc(N2CC3CN(C(=O)c4ccccc4-n4cccn4)CC3C2)n1 (centres unmarked) [Example 78, 2-(4,6-Dimethoxypyrimidin-2-yl)-5-{[2-(1H-pyrazol-1-yl)phenyl]carbonyl}octahydro-pyrrolo[3,4-c]pyrrole]
9 | 480 nM | Cc1cc(C)nc(N2CC3CN(C(=O)c4ncoc4-c4ccccc4)CC3C2)n1 (centres unmarked) [Example 79, 2-(4,6-Dimethylpyrimidin-2-yl)-5-[(5-phenyl-1,3-oxazol-4-yl)carbonyl]octahydro-pyrrolo[3,4-c]pyrrole]
10 | 314 nM | Cc1cc(C)nc(N2CC3CN(C(=O)c4cnoc4-c4ccccc4)CC3C2)n1 (centres unmarked) [Example 80, 2-(4,6-Dimethylpyrimidin-2-yl)-5-[(5-phenylisoxazol-4-yl)carbonyl]octahydro-pyrrolo[3,4-c]pyrrole]
11 | 1220 nM | Cc1cc(N2CC3CN(C(=O)c4ccccc4-n4nccn4)CC3C2)nc(C(C)C)n1 (centres unmarked) [Example 81, [5-(2-Isopropyl-6-methyl-pyrimidin-4-yl)-hexahydro-pyrrolo[3,4-c]pyrrol-2-yl]-(2-[1,2,3]triazol-2-yl-phenyl)-methanone]
12 | 379 nM | Cc1cc(C)nc(N2CC3CN(C(=O)c4ccccc4Br)CC3C2)n1 (centres unmarked) [Example 82, 2-[(2-Bromophenyl)carbonyl]-5-(4,6-dimethylpyrimidin-2-yl)octahydropyrrolo[3,4-c]pyrrole]
13 | 53 nM | COc1cc(OC)nc(N2CC3CN(C(=O)c4ccccc4-n4nccn4)CC3C2)n1 (centres unmarked) [Example 84, 2-(4,6-Dimethoxypyrimidin-2-yl)-5-{[2-(2H-1,2,3-triazol-2-yl)phenyl]carbonyl}octahydropyrrolo[3,4-c]pyrrole]
14 | 98 nM | O=C(c1ccccc1-c1nnc[nH]1)N1CC2CN(c3cnc4ccccc4n3)CC2C1 (centres unmarked) [Example 85, 2-[5-{[2-(4H-1,2,4-Triazol-3-yl)phenyl]carbonyl}hexahydropyrrolo[3,4-c]pyrrol-2(1H)-yl]quinoxaline]

Source: patent US8653263B2 (Janssen Pharmaceutica, priority 2009, dated 2014)
